PubChem BioAssay AID1996
Values after ≈ are worked out from the molar mass of the structure shown.

Settings: buffer; pH 7.4; 200.0 µM

Compound | solubility kinetic
O=C1CN(C(=O)CSc2nncs2)c2ccccc2N1 | > 46 µg/mL
CC(=O)Oc1c(C(C)C)cc(N(C(C)=O)c2ccccc2)cc1C(C)C | 41.5 µg/mL (≈ 117 µM)
CCC(=O)Nc1ccc2c(c1)nc(CCN1CCCCC1)n2C | 43.2 µg/mL (≈ 137 µM)
O=S(=O)(c1ccccc1)N1CCN(Cc2ccccc2)CC1 | 0.5 µg/mL (≈ 1.58 µM)
CCOC(=O)c1cc(NC(=O)c2cccnc2)ccn1 | 37.1 µg/mL (≈ 137 µM)
CC(NC(=O)CNC(=O)c1cccs1)c1cccc(C(F)(F)F)c1 (stereo not given) | 12.6 µg/mL (≈ 35.4 µM)
CC1CC(C)CN(CC(O)COC2CC(C)CC(C)(C)C2)C1.Cl (stereo not given) | 47.9 µg/mL
CN=c1scc(-c2ccccc2F)n1/N=C/c1ccc(O)c(O)c1O | > 53.9 µg/mL
Cc1cc(N2CCN(C(=O)Nc3ccc(F)cc3F)CC2)c2ccccc2n1 | > 57.4 µg/mL
CC(=O)/C(=C\N(C)C)Sc1ccc(Cl)cc1 | 17.6 µg/mL (≈ 68.8 µM)
CNC(=O)CSc1nc2ccccc2c(=O)n1CCc1ccccc1 | < 0.3 µg/mL
Cc1ccc(C)c(-n2c3nc(=O)n(C)c(=O)c-3cc3ccccc32)c1 | > 49.7 µg/mL
O=C(O)c1ccc(-c2cccc([N+](=O)[O-])c2)o1 | > 35 µg/mL
CC(C)N(Cc1nc(-c2ccc3c(c2)OCO3)no1)CC1CCC(=O)N1 (stereo not given) | 37.3 µg/mL (≈ 104 µM)
O=[N+]([O-])c1ccc(Oc2ccc(Oc3ccc(C(F)(F)F)cn3)cc2)nc1 | 0.3 µg/mL (≈ 0.795 µM)
CC1CCc2c(sc3ncnc(SCC(=O)N(C)C4CCS(=O)(=O)C4)c23)C1 (stereo not given) | 3.3 µg/mL (≈ 7.75 µM)
CC(=O)N1CCc2cc(S(=O)(=O)Nc3ccc(C)cc3)ccc21 | 3.6 µg/mL (≈ 10.9 µM)
Cc1cccc(NC(=O)COC(=O)CCc2ccccc2)c1C | 5.9 µg/mL (≈ 18.9 µM)
CN(C)c1nc(/C=C(\C#N)C(N)=O)c(Cl)n1-c1ccc(F)cc1 | 8.3 µg/mL (≈ 24.9 µM)
NC(=O)CC(CC(=O)OCc1ccccc1)c1ccccc1 (stereo not given) | 38 µg/mL (≈ 128 µM)

Compound | solubility kinetic
CC(=O)c1ccccc1NC(=O)c1ccc(OCc2c(C)noc2C)cc1 | 2.6 µg/mL (≈ 7.13 µM)
CCCCNC(=O)C(=O)NCCCn1ccnc1 | > 37.8 µg/mL
CC(=O)c1ccc(NC(=S)N2CCC(Cc3ccccc3)CC2)cc1 | 2.8 µg/mL (≈ 7.94 µM)
Fc1cc2[nH]c(=S)[nH]c2cc1Cl | 26.5 µg/mL (≈ 131 µM)
CCOc1ccc2oc(C(=O)NCC(C)(C)CN(C)C)c(C)c2c1.Cl | 48.4 µg/mL
Cc1csc(SCC(=O)NC(C)c2ccc(F)cc2)n1 (stereo not given) | 38.8 µg/mL (≈ 125 µM)
Cc1cccc(C(=O)N[C@H](C(=O)Nc2ccc3c(c2)OCO3)C(C)C)c1 | 5.5 µg/mL (≈ 15.5 µM)
COc1cccc(C(=O)NC(C)CCc2ccccc2)c1 (stereo not given) | 36 µg/mL (≈ 127 µM)
Cc1cccn2c(=O)c3cc(C(=O)N4COCC4(C)C)sc3nc12 | 9.2 µg/mL (≈ 26.8 µM)
CCCn1c(N)c(C(=O)COc2ccc(Br)cc2F)c(=O)n(C)c1=O | 3.9 µg/mL (≈ 9.42 µM)
CSCCC(NC(=O)C1CCCC1)c1nnc2ccccn12 (stereo not given) | > 47.8 µg/mL
CN1c2ccccc2C(=O)/C(=C\Nc2ncccn2)S1(=O)=O | 2.8 µg/mL (≈ 8.85 µM)
O=[N+]([O-])c1ccccc1S(=O)(=O)Nc1cccc2cccnc12 | 1.8 µg/mL (≈ 5.47 µM)
C=CCc1cccc(CNc2cnc3ccccc3c2)c1O | < 0.3 µg/mL
O=C(O)C1Cc2[nH]cnc2C(c2cccc([N+](=O)[O-])c2)N1 (stereo not given) | 43.1 µg/mL (≈ 150 µM)
Cc1cccc(NC(=O)COC(=O)c2cc3ccccc3oc2=O)c1 | < 0.7 µg/mL
CC(C)(C)NC(=O)NC12CC3CC(CC(C3)C1)C2 | 2.1 µg/mL (≈ 8.39 µM)
Fc1cccc(/C=N/Nc2nccnc2Cl)c1 | > 37.6 µg/mL
Cl.N=c1sccn1Cc1ccccc1F | > 36.7 µg/mL
N#Cc1cccc(NC(=O)c2cncn2-c2ccccc2)c1 | 41.8 µg/mL (≈ 145 µM)

Compound | solubility kinetic
O=S(=O)(c1ccccc1)N1CCN(C(=S)NCCc2ccccc2)CC1 | 0.5 µg/mL (≈ 1.28 µM)
COCC(C)NC(=O)c1cc2cccc([N+](=O)[O-])c2[nH]1 (stereo not given) | > 41.6 µg/mL
OC(C#CCN1CCCCCC1)(c1ccccc1)c1cccnc1 (stereo not given) | > 48.1 µg/mL
CC1CCCCC12NC(=O)N(Cc1cc(=O)n3ccsc3n1)C2=O (stereo not given) | > 52 µg/mL
CC12CC3(C)CC(C)(C1)CC(C(=O)NCc1ccccn1)(C2)C3 | 42.4 µg/mL (≈ 136 µM)
CCn1c(=N)n(CC(O)COc2ccc(C)cc2)c2ccccc21.Cl (stereo not given) | > 54.3 µg/mL
CN1C(=O)CN=C(c2ccc(Cl)cc2)c2cc(Cl)ccc21 | > 47.9 µg/mL
O=C(O/N=C1/CCCc2occc21)c1ccc(F)cc1 | 0.9 µg/mL (≈ 3.29 µM)
O=c1[nH]c2ccccc2nc1Cc1ccc([N+](=O)[O-])cc1 | 3.6 µg/mL (≈ 12.8 µM)
O=C(NCc1cccnc1)/C(=C/c1ccc([N+](=O)[O-])cc1)NC(=O)c1ccccc1 | 10.2 µg/mL (≈ 25.3 µM)
Cc1nc2c(Cl)cccc2c2c1CC(CBr)O2 (stereo not given) | 12.5 µg/mL (≈ 40 µM)
CCOc1ccc(-c2nc(N)ncc2-c2ccc(Cl)cc2)c(O)c1 | 0.9 µg/mL (≈ 2.63 µM)
CC(=O)c1c(C(C)=O)c(C)n(-c2cccc3cccnc23)c1C | > 46 µg/mL
Cc1cc(Cl)n2c(nc3ccccc32)c1C#N | 15.3 µg/mL (≈ 63.3 µM)
O=C(O)c1cccc(Nc2c([N+](=O)[O-])c(=O)oc3ccccc23)c1 | > 48.9 µg/mL
CC(=O)Nc1ccc(C(=O)OCC(=O)N(c2ccccc2)C2CCCCC2)cc1 | 3.8 µg/mL (≈ 9.63 µM)
CNC(=O)c1cccc2nc3ccccc3nc12 | > 35.6 µg/mL
CNC(=O)Nc1ccccc1C(=O)Nc1ccccc1 | > 40.4 µg/mL
CCC(CO)NCC(O)COCc1ccc2c(c1)OCO2 (stereo not given) | > 44.6 µg/mL
CCN(Cc1ccccc1)C(=O)COC(=O)c1cc(Cl)nc(Cl)c1 | > 55.1 µg/mL
